# Test results reported in PubChem BioAssay (NCI).
#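 1) Cells in 96-well plates. 2) Compound, 48 h, 5 concentrations. 3) Linear interpolation between surrounding doses. 4) Unreached endpoint = highest concentration. TGI: total growth inhibition.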
# Legend:
# Test in all cases: DTP human tumour cell line panel, 48 h
# SNB-78 CNS = system: SNB-78 CNS
# SNB-75 CNS = system: SNB-75 CNS
# SF-539 CNS = system: SF-539 CNS
# OVCAR-8 ovarian = system: OVCAR-8 ovarian
# SW-620 colon = system: SW-620 colon
# OVCAR-4 ovarian = system: OVCAR-4 ovarian
# NCI-H522 lung = system: NCI-H522 lung
# NCI-H460 lung = system: NCI-H460 lung
# KM12 colon = system: KM12 colon
# UACC-257 melanoma = system: UACC-257 melanoma
# RPMI-8226 leukemia = system: RPMI-8226 leukemia
# UO-31 renal = system: UO-31 renal
# 786-0 renal = system: 786-0 renal
# NCI-H23 lung = system: NCI-H23 lung
# HOP-92 NSCLC = system: HOP-92 NSCLC
# SK-MEL-28 melanoma = system: SK-MEL-28 melanoma
# SF-295 CNS = system: SF-295 CNS
# MDA-MB-435 = system: MDA-MB-435
# BT-549 breast = system: BT-549 breast
# HS 578T breast = system: HS 578T breast
Compound,TGI (SNB-78 CNS) [µM],TGI (SNB-75 CNS) [µM],TGI (SF-539 CNS) [µM],TGI (OVCAR-8 ovarian) [µM],TGI (SW-620 colon) [µM],TGI (OVCAR-4 ovarian) [µM],TGI (NCI-H522 lung) [µM],TGI (NCI-H460 lung) [µM],TGI (KM12 colon) [µM],TGI (UACC-257 melanoma) [µM],TGI (RPMI-8226 leukemia) [µM],TGI (UO-31 renal) [µM],TGI (786-0 renal) [µM],TGI (NCI-H23 lung) [µM],TGI (HOP-92 NSCLC) [µM],TGI (SK-MEL-28 melanoma) [µM],TGI (SF-295 CNS) [µM],TGI (MDA-MB-435) [µM],TGI (BT-549 breast) [µM],TGI (HS 578T breast) [µM]
O=C(CC(CC(=O)Oc1c(Br)cc(Br)cc1C(=O)O)C(=O)Oc1c(Br)cc(Br)cc1C(=O)O)Oc1c(Br)cc(Br)cc1C(=O)O,> 100,93.3,> 100,99.6,> 100,> 100,55.4,> 100,> 100,> 100,> 100,> 100,> 100,> 100,49.8,> 100,> 100,,,
Oc1ccc([Te]CCNCC[Te]c2ccc(O)cc2)cc1,78.6,70.8,,48,> 100,,,33.9,> 100,> 100,> 100,31.7,> 100,23.2,,,75.4,,,
NC1=NC2=c3ccccc3=C(c3cnccn3)C2(c2cnccn2)c2ccccc21 (centres undefined),> 100,> 100,> 100,> 100,> 100,> 100,> 100,> 100,> 100,> 100,> 100,> 100,> 100,> 100,> 100,> 100,> 100,,,
CC(C)(C)n1c(=O)n2n(c1=O)Cc1cccc3cccc(c13)C2,,66.4,36.4,69.9,35.9,50.3,13.6,23.9,34,89.6,71.6,53.1,45.1,> 100,69.2,58.8,54.2,62,95.3,61.1
Cc1sc2[nH]c(=O)oc(=O)c2c1C,,> 100,> 100,> 100,> 100,> 100,> 83.1,> 100,> 93.3,> 100,> 100,> 83.3,> 100,> 100,> 100,> 100,> 100,> 100,> 86.6,> 71
O=C(NC(=S)Nc1ccc2c(c1)Sc1ccccc1O2)c1ccc([N+](=O)[O-])cc1,,> 100,> 100,> 100,> 100,> 100,> 100,> 100,> 100,> 100,> 100,> 100,> 100,> 100,> 100,> 100,> 100,> 100,> 100,> 100
O=C(C=C1SCCS1)/C=C\c1ccc(Cl)cc1,> 100,> 100,> 100,> 100,> 100,> 100,> 100,,> 100,> 100,> 100,> 100,> 100,> 100,> 100,> 100,> 100,,,
CC(=O)OC1CC2CCN3C(=O)c4cc5c(cc4[C@H](C1OC(C)=O)C23)OCO5 (some centres undefined),> 100,> 100,> 100,> 100,> 100,,> 100,> 100,> 100,> 100,> 100,> 100,> 100,> 100,,> 100,> 100,,,
COc1ccccc1C1C(Cl)C(=O)N1n1cnc2ccccc2c1=O (centres undefined),> 100,> 100,,> 100,> 100,> 100,> 100,> 100,> 100,> 100,> 100,> 100,> 100,> 100,,> 100,> 100,,,
CCCCCCCCCCCCCCCCCCNc1ccn(C2OC(COP(=O)(O)OCC3OC(n4cc(C)c(=O)[nH]c4=O)CC3F)C(O)C2O)c(=O)n1 (centres undefined),,37.6,19.9,29.3,12.3,42.5,9.04,43.9,14.3,27.8,12.9,43.6,9.52,17.9,37.5,17.6,41.9,38.9,11,50.3
COC(=O)c1c(C)cccc1C1CN=NC12Cc1ccccc1C2=O (centres undefined),,> 100,> 100,> 100,> 100,> 100,> 100,> 100,> 100,> 91.3,> 100,> 100,> 100,> 100,> 100,> 100,> 100,> 100,> 100,> 100
O=c1ccn(CC2(CO)CCCC2)c(=O)[nH]1,,> 100,> 100,> 100,> 100,> 100,> 100,> 100,> 100,> 100,> 100,> 100,> 100,> 100,> 100,> 100,> 100,> 100,> 100,> 100
COc1ccc(OC)c(CSc2ccc(OC)c(OC)c2)c1,,> 100,> 100,> 100,> 100,> 100,> 100,> 100,> 100,> 100,> 100,> 100,> 100,> 100,98.3,> 100,> 100,> 100,> 100,> 100
CCCCNc1nc2ccccc2c2c1ncn2CC(C)C,,> 100,> 100,> 100,> 100,> 100,> 100,> 100,> 100,> 100,> 100,> 100,> 100,> 100,> 100,> 100,> 100,> 100,> 100,> 100
CC1=NN(c2nc(N)nc(CBr)n2)C(C)(C)C1,,21.7,5.25,18.4,12.7,20.6,1.01,23.8,23.5,25.2,5.61,1.61,1.78,29.9,1.08,27.2,24.8,27.8,28.9,38.2
C1=NCCN2CCN(CCN=Cc3ccccc3OCc3cccc(n3)COc3ccccc31)CC2,,32.5,14.1,35.5,> 50,26.6,> 50,> 50,26.2,34.4,19.1,> 50,39.5,> 50,41.6,> 50,14.1,2.22,25.9,4.43
Cc1ccc(S(=O)(=O)N2CCN(S(=O)(=O)c3ccc(C)cc3)CCN(S(=O)(=O)c3ccc(C)cc3)Cc3cc(C#N)c(C#N)cc3CN(S(=O)(=O)c3ccc(C)cc3)CC2)cc1,,> 100,> 100,> 100,> 100,> 100,> 100,> 100,> 100,> 100,> 100,> 100,> 100,> 100,89.3,> 100,> 100,> 100,> 100,> 100
Cn1c(NNc2ccccc2)cc(=O)[nH]c1=O,,> 100,> 100,> 100,> 100,> 100,40.5,> 100,65.3,> 100,> 100,> 100,44.2,> 100,> 100,> 100,> 100,43.1,> 100,> 100
C=CCc1[nH]c2c(OCc3ccccc3)cc(N(CC=C)C(C)=O)cc2c1C,,23.4,32,27.4,32.2,23.6,26.5,27.9,30.1,30.6,67.6,21.3,28,26.8,25.7,33.5,33.5,33.5,29.3,30.8
